Patent US20060069132A1, “Azolecarboxamide herbicides” (priority 2004, published 2006)

Tests used:
bermudagrass = assay: Test E pre-/postemergence herbicide test; format: in vivo, Cynodon dactylon
Excerpt: (§1) Seeds of plant species selected from bipinnate beggarticks (Bidens bipinnata L.), hairy beggarticks (Bidens radiata Thuill.), bermudagrass (Cynodon dactylon (L.) Pers.), Surinam grass (Urochloa decumbens (Staph) R. D. Webster, previously named Brachiaria decumbens Stapf), large crabgrass (Digitaria sanguinalis (L.) Scop.), green foxtail (Setaria viridis (L.) P. Beauv.), goosegrass (Eleusine indica (L.) Gaertn.), johnsongrass (Sorghum halepense (L.) Pers.), kochia (Kochia scoparia (L.) Schrad.), pitted morningglory (Ipomoea lacunosa L.), purple nutsedge (Cyperus rotundus L.), common ragweed (Ambrosia elatior L.), mustard (Brassica nigra (L.) W. D. J. Koch), guineagrass (Panicum maximum Jacq.), dallisgrass (Paspalum dilatatum Poir.), barnyardgrass (Echinochloa crus-galli (L). P. Beauv.), southern sandbur (Cenchrus echinatus L.), common sowthistle (Sonchus oleraceous L.), prickly sida (Sida spinosa L.), Italian ryegrass (Lolium multiflorum Lam.), common purslane (Portulaca oleracea L.), broadleaf signalgrass (Brachiaria platyphylla (Griseb.) Nash), common groundsel (Senecio vulgaris L.), common chickweed (Stellaria media (L.) Vill/Cyr.), tropical spiderwort (Commelina benghalensis L.), annual bluegrass (Poa annua L.), downy bromegrass (Bromus tectorum L.), itchgrass (Rottboellia cochinchinensis (L.) L.f.), quackgrass (Elytrigia repens (L.) Nevski), Canada horseweed (Erigeron Canadensis L.), field bindweed (Convolvulus arvensis L.), spotted spurge (Euphorbia maculata L.), common mallow (Malva sylvestris (=s silvestris) L.), and Russian thistle (Salsola kali L. ssp. Ruthenica (Iljin) Soo) were planted and treated preemergence with test chemicals formulated in a non-phytotoxic solvent mixture which included a surfactant.
(§2) At the same time, plants selected from these weed species were treated with postemergence applications of some of the test chemicals formulated in the same manner. Plants ranged in height from 2 to 18 cm (1- to 4-leaf stage) for postemergence treatments. Treated plants and controls were maintained in a greenhouse for 12 to 14 days, after which time all species were compared to controls and visually evaluated. Plant response ratings, summarized in Table E, are based on a scale of 0 to 100 where 0 is no effect and 100 is complete control. A dash (-) response means no test result.

Surinam grass = assay: Test E pre-/postemergence herbicide test; format: in vivo, Urochloa decumbens
Excerpt: as §1, §2

large crabgrass = assay: Test E pre-/postemergence herbicide test; format: in vivo, Digitaria sanguinalis
Excerpt: as §1, §2

common ragweed = assay: Test E pre-/postemergence herbicide test; format: in vivo, Ambrosia elatior
Excerpt: as §1, §2

dallisgrass = assay: Test E pre-/postemergence herbicide test; format: in vivo, Paspalum dilatatum
Excerpt: as §1, §2

itchgrass = assay: Test E pre-/postemergence herbicide test; format: in vivo, Rottboellia cochinchinensis
Excerpt: as §1, §2

quackgrass = assay: Test E pre-/postemergence herbicide test; format: in vivo, Elytrigia repens
Excerpt: as §1, §2

Russian thistle = assay: Test E pre-/postemergence herbicide test; format: in vivo, Salsola kali; conditions: scale 0 to 100
Excerpt: as §1, §2

winter barley = assay: Test C postemergence herbicide test; format: in vivo, Hordeum vulgare
Method in brief: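 Plants were grown to the 1- to 4-leaf stage (2–18 cm) and then treated postemergence, or grown to the 2-leaf stage for the flooded paddy test. They were held in a greenhouse for 12 to 14 days and then scored by eye against controls, where 0 is no effect and 100 is complete control.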

blackgrass = assay: Test C postemergence herbicide test; format: in vivo, Alopecurus myosuroides
Method in brief: (§3)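 Postemergence sprays applied to plants 2 to 18 cm tall (1- to 4-leaf stage); paddy species grown to 2-leaf stage under flooding. After 12 to 14 days in greenhouse, visual rating versus untreated controls on 0–100 scale (0 no effect, 100 complete control).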

canarygrass = assay: Test C postemergence herbicide test; format: in vivo, Phalaris minor
Method in brief: as §3

green foxtail = assay: Test C postemergence herbicide test; format: in vivo, Setaria viridis
Method in brief: as §3

Italian ryegrass = assay: Test C postemergence herbicide test; format: in vivo, Lolium multiflorum; conditions: postemergence, scale 0 to 100
Method in brief: as §3

wild oat = assay: Test C postemergence herbicide test; format: in vivo, Avenafatua; conditions: postemergence, scale 0 to 100
Method in brief: as §3

windgrass = assay: Test C postemergence herbicide test; format: in vivo, Apera spica-venti; conditions: postemergence, scale 0 to 100
Method in brief: as §3

[1] = Postemergence, 500 g ai/ha, scale 0 to 100
[2] = Postemergence, 250 g ai/ha, scale 0 to 100
[3] = Preemergence, 62 g ai/ha, scale 0 to 100
[4] = Preemergence, 125 g ai/ha, scale 0 to 100
[5] = Preemergence, 250 g ai/ha, scale 0 (no effect) to 100 (complete control)
[6] = Preemergence, 500 g ai/ha, scale 0 (no effect) to 100 (complete control)
[7] = postemergence, 125 g ai/ha, scale 0 to 100
[8] = postemergence, 62 g ai/ha, scale 0 to 100
[9] = Postemergence, 125 g ai/ha, scale 0 to 100, 0 no effect, 100 complete control
[10] = Postemergence, 250 g ai/ha, scale 0 to 100, 0 no effect, 100 complete control
[11] = postemergence, 31 g ai/ha, scale 0 to 100
[12] = postemergence, 62 g ai/ha, scale 0 to 100 (0 no effect, 100 complete control)

CCn1nc(C2(C)CC2)cc1C(=O)Nc1cc(C(=O)N(C)C)ccc1F [Compound 299]
Plant response rating, Bermudagrass (bermudagrass; [1]): 80
Plant response rating, Bermudagrass (bermudagrass; [2]): 70
Plant response rating, Bermudagrass (bermudagrass; [3]): 80
Plant response rating, Bermudagrass (bermudagrass; [4]): 100
Plant response rating, Bermudagrass (bermudagrass; [5]): 100
Plant response rating, Bermudagrass (bermudagrass; [6]): 95
Plant response rating, Bermudagrass (bermudagrass; [7]): 50
Plant response rating, Bermudagrass (bermudagrass; [8]): 40
Plant response rating, Surinam Grass (Surinam grass; [1]): 90
Plant response rating, Surinam Grass (Surinam grass; [2]): 75
Plant response rating, Surinam Grass (Surinam grass; [4]): 95
Plant response rating, Surinam Grass (Surinam grass; [6]): 100
Plant response rating, Surinam Grass (Surinam grass; [7]): 75
Plant response rating, Surinam Grass (Surinam grass; [8]): 70
Plant response rating, Crabgrass, Large (large crabgrass; [1]): 95
Plant response rating, Crabgrass, Large (large crabgrass; [2]): 95
Plant response rating, Crabgrass, Large (large crabgrass; [3]): 90
Plant response rating, Crabgrass, Large (large crabgrass; [4]): 100
Plant response rating, Crabgrass, Large (large crabgrass; [5]): 100
Plant response rating, Crabgrass, Large (large crabgrass; [6]): 100
Plant response rating, Crabgrass, Large (large crabgrass; [7]): 85
Plant response rating, Crabgrass, Large (large crabgrass; [8]): 75
Plant response rating, Ragweed (common ragweed; [1]): 90
Plant response rating, Ragweed (common ragweed; [2]): 70
Plant response rating, Ragweed (common ragweed; [3]): 20
Plant response rating, Ragweed (common ragweed; [4]): 85
Plant response rating, Ragweed (common ragweed; [5]): 90
Plant response rating, Ragweed (common ragweed; [6]): 100
Plant response rating, Ragweed (common ragweed; [7]): 60
Plant response rating, Ragweed (common ragweed; [8]): 30
Plant response rating, Dallisgrass (dallisgrass; [1]): 85
Plant response rating, Dallisgrass (dallisgrass; [2]): 75
Plant response rating, Dallisgrass (dallisgrass; [3]): 75
Plant response rating, Dallisgrass (dallisgrass; [4]): 85
Plant response rating, Dallisgrass (dallisgrass; [5]): 100
Plant response rating, Dallisgrass (dallisgrass; [6]): 100
Plant response rating, Dallisgrass (dallisgrass; [7]): 70
Plant response rating, Dallisgrass (dallisgrass; [8]): 50
Plant response rating, Itchgrass (itchgrass; [1]): 80
Plant response rating, Itchgrass (itchgrass; [2]): 75
Plant response rating, Itchgrass (itchgrass; [3]): 60
Plant response rating, Itchgrass (itchgrass; [4]): 75
Plant response rating, Itchgrass (itchgrass; [5]): 90
Plant response rating, Itchgrass (itchgrass; [6]): 100
Plant response rating, Itchgrass (itchgrass; [7]): 70
Plant response rating, Itchgrass (itchgrass; [8]): 30
Plant response rating, Quackgrass (quackgrass; [1]): 100
Plant response rating, Quackgrass (quackgrass; [2]): 85
Plant response rating, Quackgrass (quackgrass; [3]): 80
Plant response rating, Quackgrass (quackgrass; [4]): 80
Plant response rating, Quackgrass (quackgrass; [5]): 95
Plant response rating, Quackgrass (quackgrass; [6]): 100
Plant response rating, Quackgrass (quackgrass; [7]): 75
Plant response rating, Quackgrass (quackgrass; [8]): 20
Plant response rating, Thistle (Russian thistle; Postemergence, 500 g ai/ha): 90
Plant response rating, Thistle (Russian thistle; Postemergence, 250 g ai/ha): 70
Plant response rating, Thistle (Russian thistle; Preemergence, 125 g ai/ha): 100

Cc1nn(C(C)(C)C)nc1C(=O)Nc1cccc(C(=O)N2CC=CC2)c1 [Compound 393]
Plant response rating, Barley, Winter (winter barley; [9]): 35
Plant response rating, Barley, Winter (winter barley; [10]): 35
Plant response rating, Barley, Winter (winter barley; [11]): 20
Plant response rating, Barley, Winter (winter barley; [12]): 35
Plant response rating, Blackgrass (blackgrass; [10]): 65
Plant response rating, Blackgrass (blackgrass; [7]): 60
Plant response rating, Blackgrass (blackgrass; [11]): 55
Plant response rating, Blackgrass (blackgrass; [8]): 60
Plant response rating, Canarygrass (canarygrass; [10]): 65
Plant response rating, Canarygrass (canarygrass; [7]): 65
Plant response rating, Canarygrass (canarygrass; [11]): 60
Plant response rating, Canarygrass (canarygrass; [8]): 65
Plant response rating, Foxtail, Green (green foxtail; [10]): 65
Plant response rating, Foxtail, Green (green foxtail; [7]): 65
Plant response rating, Foxtail, Green (green foxtail; [8]): 60
Plant response rating, Ryegrass, Italian (Italian ryegrass; 125 g ai/ha): 60
Plant response rating, Ryegrass, Italian (Italian ryegrass; 62 g ai/ha): 55
Plant response rating, Oat, Wild (wild oat; 125 g ai/ha): 65
Plant response rating, Oat, Wild (wild oat; 62 g ai/ha): 55
Plant response rating, Windgrass (windgrass; 125 g ai/ha): 55
Plant response rating, Windgrass (windgrass; 62 g ai/ha): 45
Plant response rating, Bermudagrass (bermudagrass; [3]): 40
Plant response rating, Bermudagrass (bermudagrass; [4]): 90
Plant response rating, Bermudagrass (bermudagrass; [5]): 95
Plant response rating, Bermudagrass (bermudagrass; [6]): 100
Plant response rating, Surinam Grass (Surinam grass; [4]): 20
Plant response rating, Surinam Grass (Surinam grass; [6]): 70
Plant response rating, Crabgrass, Large (large crabgrass; [3]): 10
Plant response rating, Crabgrass, Large (large crabgrass; [4]): 80
Plant response rating, Crabgrass, Large (large crabgrass; [5]): 95
Plant response rating, Crabgrass, Large (large crabgrass; [6]): 100
Plant response rating, Ragweed (common ragweed; [3]): 0
Plant response rating, Ragweed (common ragweed; [4]): 10
Plant response rating, Ragweed (common ragweed; [5]): 20
Plant response rating, Ragweed (common ragweed; [6]): 80
Plant response rating, Dallisgrass (dallisgrass; [3]): 0
Plant response rating, Dallisgrass (dallisgrass; [4]): 10
Plant response rating, Dallisgrass (dallisgrass; [5]): 75
Plant response rating, Dallisgrass (dallisgrass; [6]): 85
Plant response rating, Itchgrass (itchgrass; [3]): 0
Plant response rating, Itchgrass (itchgrass; [4]): 10
Plant response rating, Itchgrass (itchgrass; [5]): 30
Plant response rating, Itchgrass (itchgrass; [6]): 60
Plant response rating, Quackgrass (quackgrass; [3]): 50
Plant response rating, Quackgrass (quackgrass; [4]): 50
Plant response rating, Quackgrass (quackgrass; [5]): 60
Plant response rating, Quackgrass (quackgrass; [6]): 60

CCc1nn(C(C)(C)C)nc1C(=O)Nc1cccc(C(=O)N(C)CC)c1 [Compound 384]
Plant response rating, Barley, Winter (winter barley; [9]): 35
Plant response rating, Barley, Winter (winter barley; [10]): 35
Plant response rating, Barley, Winter (winter barley; [11]): 0
Plant response rating, Barley, Winter (winter barley; [12]): 10
Plant response rating, Blackgrass (blackgrass; [10]): 45
Plant response rating, Blackgrass (blackgrass; [7]): 45
Plant response rating, Blackgrass (blackgrass; [11]): 45
Plant response rating, Blackgrass (blackgrass; [8]): 45
Plant response rating, Canarygrass (canarygrass; [10]): 40
Plant response rating, Canarygrass (canarygrass; [7]): 35
Plant response rating, Canarygrass (canarygrass; [11]): 20
Plant response rating, Canarygrass (canarygrass; [8]): 30
Plant response rating, Foxtail, Green (green foxtail; [10]): 65
Plant response rating, Foxtail, Green (green foxtail; [7]): 60
Plant response rating, Foxtail, Green (green foxtail; [8]): 60
Plant response rating, Ryegrass, Italian (Italian ryegrass; 125 g ai/ha): 55
Plant response rating, Ryegrass, Italian (Italian ryegrass; 62 g ai/ha): 45
Plant response rating, Oat, Wild (wild oat; 125 g ai/ha): 45
Plant response rating, Oat, Wild (wild oat; 62 g ai/ha): 35
Plant response rating, Windgrass (windgrass; 125 g ai/ha): 45
Plant response rating, Windgrass (windgrass; 62 g ai/ha): 45
Plant response rating, Bermudagrass (bermudagrass; [3]): 80
Plant response rating, Bermudagrass (bermudagrass; [4]): 95
Plant response rating, Bermudagrass (bermudagrass; [5]): 95
Plant response rating, Bermudagrass (bermudagrass; [6]): 95
Plant response rating, Surinam Grass (Surinam grass; [4]): 60
Plant response rating, Surinam Grass (Surinam grass; [6]): 95
Plant response rating, Crabgrass, Large (large crabgrass; [3]): 90
Plant response rating, Crabgrass, Large (large crabgrass; [4]): 100
Plant response rating, Crabgrass, Large (large crabgrass; [5]): 100
Plant response rating, Crabgrass, Large (large crabgrass; [6]): 100
Plant response rating, Ragweed (common ragweed; [3]): 0
Plant response rating, Ragweed (common ragweed; [4]): 10
Plant response rating, Ragweed (common ragweed; [5]): 40
Plant response rating, Ragweed (common ragweed; [6]): 40
Plant response rating, Dallisgrass (dallisgrass; [3]): 10
Plant response rating, Dallisgrass (dallisgrass; [4]): 70
Plant response rating, Dallisgrass (dallisgrass; [5]): 75
Plant response rating, Dallisgrass (dallisgrass; [6]): 90
Plant response rating, Itchgrass (itchgrass; [3]): 40
Plant response rating, Itchgrass (itchgrass; [4]): 60
Plant response rating, Itchgrass (itchgrass; [5]): 70
Plant response rating, Itchgrass (itchgrass; [6]): 85
Plant response rating, Quackgrass (quackgrass; [3]): 50
Plant response rating, Quackgrass (quackgrass; [4]): 70
Plant response rating, Quackgrass (quackgrass; [5]): 85
Plant response rating, Quackgrass (quackgrass; [6]): 85
